Results from the NIST ThermoML archive (doi:10.1016/j.jct.2007.05.016).
Numbers after ± are expanded uncertainties.

Test: xn = mol fraction of the nth substance listed
Conditions: 101 kPa, Liquid; for speed of sound: Sing-around technique in a fixed-path interferometer

CCCCCCCCCC [decane] + CCCCO
Conditions | mass density, 298.15 K [kg/m3] | mass density, 303.15 K [kg/m3] | mass density, 308.15 K [kg/m3] | speed of sound, 298.15 K [m/s] | speed of sound, 303.15 K [m/s] | speed of sound, 308.15 K [m/s] | viscosity, 298.15 K [mPa·s]
x2 = 0 | 726.806 ± 0.93 | 723.042 ± 0.94 | 719.23 ± 0.95 | 1234.8 ± 1.2 | 1215.2 ± 1.2 | 1195.6 ± 1.2 | 0.852 ± 0.012
x2 = 0.0678 | 728.769 ± 0.93 | 724.903 ± 0.94 | 721.031 ± 0.94 | 1230.4 ± 1.2 | 1210.6 ± 1.2 | 1191.9 ± 1.2 | 0.845 ± 0.012
x2 = 0.1105 | 730.259 ± 0.92 | 726.415 ± 0.93 | 722.511 ± 0.94 | 1228.8 ± 1.2 | 1209.1 ± 1.2 | 1189.4 ± 1.2 | 0.855 ± 0.012
x2 = 0.1614 | 732.194 ± 0.92 | 728.365 ± 0.93 | 724.437 ± 0.94 | 1227.3 ± 1.2 | 1207.6 ± 1.2 | 1187.9 ± 1.2 | 0.868 ± 0.012
x2 = 0.2372 | 735.44 ± 0.91 | 731.639 ± 0.92 | 727.679 ± 0.93 | 1225.4 ± 1.2 | 1206.1 ± 1.2 | 1185.5 ± 1.2 | 0.895 ± 0.013
x2 = 0.3068 | 738.779 ± 0.91 | 734.994 ± 0.92 | 731.004 ± 0.92 | 1224.1 ± 1.2 | 1204.5 ± 1.2 | 1184.6 ± 1.2 | 0.931 ± 0.013
x2 = 0.4278 | 745.484 ± 0.89 | 741.679 ± 0.9 | 737.66 ± 0.91 | 1222.9 ± 1.2 | 1203.7 ± 1.2 | 1183.8 ± 1.2 | 1.019 ± 0.014
x2 = 0.5071 | 750.606 ± 0.88 | 746.798 ± 0.89 | 742.769 ± 0.9 | 1222.8 ± 1.2 | 1203.8 ± 1.2 | 1184.3 ± 1.2 | 1.102 ± 0.015
x2 = 0.5547 | 754.019 ± 0.88 | 750.194 ± 0.88 | 746.151 ± 0.89 | 1222.9 ± 1.2 | 1203.9 ± 1.2 | 1184.8 ± 1.2 | 1.164 ± 0.015
x2 = 0.6068 | 758.098 ± 0.87 | 754.237 ± 0.88 | 750.219 ± 0.88 | 1223.4 ± 1.2 | 1204.5 ± 1.2 | 1185.6 ± 1.2 | 1.244 ± 0.016
x2 = 0.7032 | 766.65 ± 0.85 | 762.82 ± 0.86 | 758.774 ± 0.87 | 1224.9 ± 1.2 | 1206.3 ± 1.2 | 1187.6 ± 1.2 | 1.432 ± 0.018
x2 = 0.8036 | 777.321 ± 0.83 | 773.625 ± 0.84 | 769.593 ± 0.84 | 1227.9 ± 1.2 | 1210.2 ± 1.2 | 1191.3 ± 1.2 | 1.685 ± 0.021
x2 = 0.8498 | 782.998 ± 0.82 | 779.309 ± 0.82 | 775.279 ± 0.83 | 1229.9 ± 1.2 | 1212.4 ± 1.2 | 1194 ± 1.2 | 1.843 ± 0.023
x2 = 0.9015 | 790.035 ± 0.8 | 786.406 ± 0.81 | 782.421 ± 0.82 | 1232.8 ± 1.2 | 1215.7 ± 1.2 | 1197.9 ± 1.2 | 2.047 ± 0.026
x2 = 0.95 | 797.464 ± 0.79 | 794.041 ± 0.79 | 790.078 ± 0.8 | 1236.2 ± 1.2 | 1219.9 ± 1.2 | 1203.1 ± 1.2 | 2.277 ± 0.028

CCCCCC [hexane] + CCCCO
Conditions | mass density, 298.15 K [kg/m3] | mass density, 303.15 K [kg/m3] | mass density, 308.15 K [kg/m3] | speed of sound, 298.15 K [m/s] | speed of sound, 303.15 K [m/s] | speed of sound, 308.15 K [m/s] | viscosity, 298.15 K [mPa·s]
x2 = 0 | 655.072 ± 1.1 | 650.369 ± 1.1 | 645.767 ± 1.1 | 1077.8 ± 1.2 | 1055.2 ± 1.1 | 1032.9 ± 1.1 | 0.313 ± 0.008
x2 = 0.0507 | 660.196 ± 1.1 | 655.432 ± 1.1 | 650.791 ± 1.1 | 1077.6 ± 1.2 | 1054.9 ± 1.1 | 1032.7 ± 1.1 | 0.323 ± 0.008
x2 = 0.101 | 665.602 ± 1.1 | 660.733 ± 1.1 | 656.143 ± 1.1 | 1079.4 ± 1.2 | 1056.8 ± 1.1 | 1034.5 ± 1.1 | 0.338 ± 0.008
x2 = 0.1524 | 671.434 ± 1 | 666.54 ± 1.1 | 661.908 ± 1.1 | 1082.5 ± 1.2 | 1059.9 ± 1.2 | 1037.6 ± 1.1 | 0.356 ± 0.008
x2 = 0.2574 | 684.29 ± 1 | 679.54 ± 1 | 674.857 ± 1 | 1091.7 ± 1.2 | 1069.1 ± 1.2 | 1046.8 ± 1.1 | 0.409 ± 0.008
x2 = 0.379 | 700.46 ± 0.99 | 696.019 ± 1 | 691.525 ± 1 | 1106.3 ± 1.2 | 1083.7 ± 1.2 | 1062 ± 1.2 | 0.505 ± 0.009
x2 = 0.4125 | 705.163 ± 0.98 | 700.869 ± 0.99 | 696.345 ± 1 | 1111.1 ± 1.2 | 1088.5 ± 1.2 | 1066.7 ± 1.2 | 0.547 ± 0.01
x2 = 0.4502 | 710.564 ± 0.97 | 706.47 ± 0.98 | 701.99 ± 0.98 | 1116.7 ± 1.2 | 1094.1 ± 1.2 | 1072.3 ± 1.2 | 0.587 ± 0.01
x2 = 0.5121 | 719.663 ± 0.95 | 715.869 ± 0.96 | 711.606 ± 0.97 | 1126.5 ± 1.2 | 1103.9 ± 1.2 | 1082.5 ± 1.2 | 0.679 ± 0.011
x2 = 0.6005 | 733.301 ± 0.92 | 730.025 ± 0.93 | 725.938 ± 0.94 | 1141.9 ± 1.2 | 1120.8 ± 1.2 | 1099.2 ± 1.2 | 0.854 ± 0.012
x2 = 0.7004 | 749.66 ± 0.89 | 746.763 ± 0.89 | 742.943 ± 0.9 | 1162.2 ± 1.2 | 1141.1 ± 1.2 | 1120.6 ± 1.2 | 1.11 ± 0.015
x2 = 0.8202 | 770.812 ± 0.84 | 767.985 ± 0.85 | 764.319 ± 0.85 | 1190.9 ± 1.2 | 1171.5 ± 1.2 | 1151.5 ± 1.2 | 1.541 ± 0.02
x2 = 0.8523 | 776.78 ± 0.83 | 773.953 ± 0.83 | 770.292 ± 0.84 | 1199 ± 1.2 | 1179.9 ± 1.2 | 1160.3 ± 1.2 | 1.685 ± 0.021
x2 = 0.8957 | 785.079 ± 0.81 | 782.252 ± 0.82 | 778.547 ± 0.83 | 1210.5 ± 1.2 | 1192.1 ± 1.2 | 1172.9 ± 1.2 | 1.901 ± 0.024
x2 = 0.9476 | 795.298 ± 0.79 | 792.462 ± 0.8 | 788.743 ± 0.81 | 1225.1 ± 1.2 | 1207.9 ± 1.2 | 1189.6 ± 1.2 | 2.209 ± 0.028

CCCCCCCC [octane] + CCCCO
Conditions | mass density, 298.15 K [kg/m3] | mass density, 303.15 K [kg/m3] | mass density, 308.15 K [kg/m3] | speed of sound, 298.15 K [m/s] | speed of sound, 303.15 K [m/s] | speed of sound, 308.15 K [m/s] | viscosity, 298.15 K [mPa·s]
x2 = 0 | 698.58 ± 0.99 | 694.497 ± 1 | 690.416 ± 1 | 1172.7 ± 1.2 | 1152.1 ± 1.2 | 1131.7 ± 1.2 | 0.518 ± 0.009
x2 = 0.0563 | 701.448 ± 0.98 | 697.299 ± 0.99 | 693.192 ± 1 | 1169.8 ± 1.2 | 1149.2 ± 1.2 | 1128.6 ± 1.2 | 0.525 ± 0.009
x2 = 0.1091 | 704.623 ± 0.98 | 700.473 ± 0.99 | 696.337 ± 0.99 | 1169.4 ± 1.2 | 1148.8 ± 1.2 | 1128.2 ± 1.2 | 0.54 ± 0.009
x2 = 0.1579 | 707.716 ± 0.97 | 703.646 ± 0.98 | 699.455 ± 0.99 | 1169.4 ± 1.2 | 1149 ± 1.2 | 1128.1 ± 1.2 | 0.55 ± 0.01
x2 = 0.2245 | 712.309 ± 0.96 | 708.268 ± 0.97 | 704.085 ± 0.98 | 1170.1 ± 1.2 | 1149.5 ± 1.2 | 1129.2 ± 1.2 | 0.585 ± 0.01
x2 = 0.3117 | 718.911 ± 0.95 | 714.997 ± 0.96 | 710.775 ± 0.96 | 1172.1 ± 1.2 | 1151.8 ± 1.2 | 1131.4 ± 1.2 | 0.636 ± 0.01
x2 = 0.4013 | 726.41 ± 0.93 | 722.577 ± 0.94 | 718.357 ± 0.95 | 1175.4 ± 1.2 | 1155.4 ± 1.2 | 1135.6 ± 1.2 | 0.708 ± 0.011
x2 = 0.4519 | 731.021 ± 0.92 | 727.253 ± 0.93 | 723.057 ± 0.94 | 1177.8 ± 1.2 | 1158.1 ± 1.2 | 1138 ± 1.2 | 0.762 ± 0.011
x2 = 0.5106 | 736.716 ± 0.91 | 733.019 ± 0.92 | 728.779 ± 0.93 | 1181.2 ± 1.2 | 1161.7 ± 1.2 | 1141.9 ± 1.2 | 0.837 ± 0.012
x2 = 0.6032 | 746.6 ± 0.89 | 742.919 ± 0.9 | 738.734 ± 0.91 | 1187.9 ± 1.2 | 1169.1 ± 1.2 | 1149.6 ± 1.2 | 0.992 ± 0.014
x2 = 0.7087 | 759.397 ± 0.86 | 755.747 ± 0.87 | 751.584 ± 0.88 | 1197.5 ± 1.2 | 1179.4 ± 1.2 | 1160.3 ± 1.2 | 1.232 ± 0.016
x2 = 0.8063 | 772.907 ± 0.84 | 769.349 ± 0.84 | 765.239 ± 0.85 | 1208.9 ± 1.2 | 1191.2 ± 1.2 | 1172.8 ± 1.2 | 1.539 ± 0.02
x2 = 0.8492 | 779.452 ± 0.82 | 775.973 ± 0.83 | 771.885 ± 0.84 | 1214.9 ± 1.2 | 1197.5 ± 1.2 | 1179.4 ± 1.2 | 1.711 ± 0.022
x2 = 0.909 | 789.203 ± 0.8 | 786.026 ± 0.81 | 781.895 ± 0.82 | 1223.7 ± 1.2 | 1207.2 ± 1.2 | 1189.3 ± 1.2 | 1.991 ± 0.025
x2 = 0.956 | 797.537 ± 0.79 | 794.495 ± 0.79 | 790.449 ± 0.8 | 1231.9 ± 1.2 | 1215.5 ± 1.2 | 1198.8 ± 1.2 | 2.262 ± 0.028
